Drawing on ChEMBL document CHEMBL1139935, “Discovery of novel indazole-linked triazoles as antifungal agents” (2007), this text covers MIC80 for 16 molecules.

In brackets after ≈: the same amount, converted by molar mass. Bounds are passed on as bounds.

For assay [1], the system named is Aspergillus flavus. As to the kind of experiment: Antifungal activity against Aspergillus flavus ATCC MYA-1004 by broth microdilution assay. In kind it is functional. For orientation: Broth dilution looks for growth in wells or tubes with falling amounts of substance.
For assay [2], the system named is Aspergillus terreus. As to the kind of experiment: Antifungal activity against Aspergillus terreus ATCC 28301 by broth microdilution assay. In kind it is functional.
For assay [3], the system named is Nakaseomyces glabratus. The assay can be described thus: Antifungal activity against Candida glabrata ATCC 34138 by broth microdilution assay. It counts as functional.
Assay [4] relates to Aspergillus fumigatus. The assay can be described thus: Antifungal activity against Aspergillus fumigatus ATCC 16424 by broth microdilution assay. It counts as functional.
Assay [5] deals with Clavispora lusitaniae. The assay can be described thus: Antifungal activity against Candida lusitaniae ATCC 42720 by broth microdilution assay. It counts as functional.
Assay [6] relates to Candida parapsilosis. The assay can be described thus: Antifungal activity against Candida parapsilosis ATCC 21019 by broth microdilution assay. In kind it is functional. The settings on record: Lodderomyces parapsilosis.
The subject of assay [7] is Cryptococcus neoformans. The assay can be described thus: Antifungal activity against Cryptococcus neoformans ATCC 24065 by broth microdilution assay.
The test system of assay [8] is Candida tropicalis. As to the kind of experiment: Antifungal activity against Candida tropicalis ATCC 750 by broth microdilution assay. It counts as functional.
Assay [9] relates to Aspergillus niger. The assay can be described thus: Antifungal activity against Aspergillus niger ATCC 9042 by broth microdilution assay. In kind it is functional.
Assay [10] has as its system Candida albicans. The assay can be described thus: Antifungal activity against Candida albicans ATCC 36082 by broth microdilution assay. It counts as functional.
Assay [11] deals with Pichia kudriavzevii. As to the kind of experiment: Antifungal activity against Candida krusei ATCC 6528 by broth microdilution assay. It counts as functional.

For the molecule `C[C@@H](n1ncc2cc(F)ccc21)[C@](O)(Cn1cncn1)c1ccc(F)cc1F`, the MIC80 – broadly, the lowest concentration that inhibits either 80% of growth or 80% of the strains tested, depending on the study – in [1] is 4 µg/mL (≈ 10.3 µM); in [2], 4 µg/mL (≈ 10.3 µM); in [3] it was 4 µg/mL (≈ 10.3 µM); in assay [4], 4 µg/mL (≈ 10.3 µM); in [5], no more than 0.015 µg/mL; in assay [6] it was 0.125 µg/mL (≈ 0.323 µM). In addition, the MIC80 in [7] is 0.063 µg/mL (≈ 0.163 µM); in assay [8] it was 0.25 µg/mL (≈ 0.645 µM); in assay [9] it was 8 µg/mL (≈ 20.7 µM); in assay [10] it was no more than 0.015 µg/mL; in [11], 1 µg/mL (≈ 2.58 µM).

Turning to `C[C@@H](n1cc2ccc([N+](=O)[O-])cc2n1)[C@](O)(Cn1cncn1)c1ccc(F)cc1F`, the MIC80 is 32 µg/mL (≈ 77.2 µM) in [1]; 128 µg/mL (≈ 309 µM) in assay [2]; greater than 8 µg/mL in [3]; 32 µg/mL (≈ 77.2 µM) in assay [4]; 0.5 µg/mL (≈ 1.21 µM) in assay [5]; 0.25 µg/mL (≈ 0.603 µM) in [6]. Further, the MIC80 in assay [7] was 0.5 µg/mL (≈ 1.21 µM); in assay [8] it was 8 µg/mL (≈ 19.3 µM); in assay [9], 64 µg/mL (≈ 154 µM); in assay [10], 0.063 µg/mL (≈ 0.152 µM); in assay [11], greater than 8 µg/mL.

With `C[C@@H](n1cc2cc(F)ccc2n1)[C@](O)(Cn1cncn1)c1ccc(F)cc1F`, the MIC80 was 0.5 µg/mL (≈ 1.29 µM) in assay [1]; 0.5 µg/mL (≈ 1.29 µM) in assay [2]; 4 µg/mL (≈ 10.3 µM) in assay [3]; 0.25 µg/mL (≈ 0.645 µM) in assay [4]; no more than 0.015 µg/mL in [5]; 0.031 µg/mL (≈ 0.08 µM) in [6]. In addition, the MIC80 in [7] is 0.063 µg/mL (≈ 0.163 µM); in [8] it was 0.125 µg/mL (≈ 0.323 µM); in [9], 1 µg/mL (≈ 2.58 µM); in assay [10], no more than 0.015 µg/mL; in assay [11], 0.5 µg/mL (≈ 1.29 µM).

For `C[C@@H](n1cc2cc(Cl)ccc2n1)[C@](O)(Cn1cncn1)c1ccc(F)cc1F`, the MIC80 is 0.5 µg/mL (≈ 1.24 µM) in [1]; 0.5 µg/mL (≈ 1.24 µM) in assay [2]; 4 µg/mL (≈ 9.91 µM) in [3]; 0.25 µg/mL (≈ 0.619 µM) in [4]; no more than 0.015 µg/mL in assay [5]; no more than 0.015 µg/mL in assay [6]. For the same molecule, the MIC80 in assay [7] was 0.015 µg/mL (≈ 0.0371 µM); in [8] it was 0.031 µg/mL (≈ 0.0768 µM); in assay [9], 1 µg/mL (≈ 2.48 µM); in assay [10] it was no more than 0.015 µg/mL; in assay [11] it was 0.125 µg/mL (≈ 0.31 µM).

For `Cc1nn([C@H](C)[C@](O)(Cn2cncn2)c2ccc(F)cc2F)c2ccc(Cl)cc12`, the MIC80 in assay [1] is greater than 16 µg/mL; in assay [2], greater than 16 µg/mL; in assay [3], 4 µg/mL (≈ 9.57 µM); in [4] it was greater than 16 µg/mL; in assay [5] it was no more than 0.015 µg/mL; in [6] it was 0.125 µg/mL (≈ 0.299 µM). The MIC80 is 0.25 µg/mL (≈ 0.598 µM) in [7]; 1 µg/mL (≈ 2.39 µM) in assay [8]; greater than 16 µg/mL in [9]; no more than 0.015 µg/mL in assay [10]; 2 µg/mL (≈ 4.79 µM) in assay [11].

With `C[C@@H](n1ncc2cc(N)ccc21)[C@](O)(Cn1cncn1)c1ccc(F)cc1F`, the MIC80 was greater than 8 µg/mL in [3]; 0.25 µg/mL (≈ 0.65 µM) in assay [5]; 2 µg/mL (≈ 5.2 µM) in assay [6]; 1 µg/mL (≈ 2.6 µM) in assay [7]; 1 µg/mL (≈ 2.6 µM) in assay [8]; 0.25 µg/mL (≈ 0.65 µM) in [10]. Further, the MIC80 in assay [11] stood at 8 µg/mL (≈ 20.8 µM).

For the molecule `C[C@@H](n1ncc2cc(N(C)C)ccc21)[C@](O)(Cn1cncn1)c1ccc(F)cc1F`, the MIC80 in [1] stood at 1 µg/mL (≈ 2.42 µM); in assay [2], 2 µg/mL (≈ 4.85 µM); in assay [3], 8 µg/mL (≈ 19.4 µM); in [4], 1 µg/mL (≈ 2.42 µM); in assay [5], 0.063 µg/mL (≈ 0.153 µM); in assay [6] it was 0.5 µg/mL (≈ 1.21 µM). Further, the MIC80 amounted to 0.25 µg/mL (≈ 0.606 µM) in assay [7]; 0.5 µg/mL (≈ 1.21 µM) in [8]; 2 µg/mL (≈ 4.85 µM) in assay [9]; 0.063 µg/mL (≈ 0.153 µM) in assay [10]; 1 µg/mL (≈ 2.42 µM) in [11].

As for `C[C@@H](n1ncc2cc(Br)ccc21)[C@](O)(Cn1cncn1)c1ccc(F)cc1F`, the MIC80 in assay [1] was 4 µg/mL (≈ 8.92 µM); in assay [2] it was 4 µg/mL (≈ 8.92 µM); in assay [3] it was 4 µg/mL (≈ 8.92 µM); in [4], 2 µg/mL (≈ 4.46 µM); in assay [5], no more than 0.015 µg/mL; in [6], 0.125 µg/mL (≈ 0.279 µM). Further, the MIC80 in assay [7] is no more than 0.015 µg/mL; in [8], 1 µg/mL (≈ 2.23 µM); in assay [9], 4 µg/mL (≈ 8.92 µM); in assay [10] it was no more than 0.015 µg/mL; in [11], 2 µg/mL (≈ 4.46 µM).

Consider `C[C@@H](n1ncc2ccc([N+](=O)[O-])cc21)[C@](O)(Cn1cncn1)c1ccc(F)cc1F`, for which the MIC80 in [1] was 2 µg/mL (≈ 4.83 µM); in assay [2], 2 µg/mL (≈ 4.83 µM); in assay [3], 8 µg/mL (≈ 19.3 µM); in assay [4], 2 µg/mL (≈ 4.83 µM); in assay [5] it was no more than 0.015 µg/mL; in [6], no more than 0.015 µg/mL. Moreover, the MIC80 in assay [7] was 0.25 µg/mL (≈ 0.603 µM); in assay [8], no more than 0.015 µg/mL; in assay [9] it was 4 µg/mL (≈ 9.65 µM); in [10] it was no more than 0.015 µg/mL; in assay [11] it was 0.5 µg/mL (≈ 1.21 µM).

As to `C[C@@H](n1ncc2cccc([N+](=O)[O-])c21)[C@](O)(Cn1cncn1)c1ccc(F)cc1F`, the MIC80 in [1] was 1 µg/mL (≈ 2.41 µM); in [2], 2 µg/mL (≈ 4.83 µM); in [3] it was 4 µg/mL (≈ 9.65 µM); in assay [4], 2 µg/mL (≈ 4.83 µM); in assay [5], no more than 0.015 µg/mL; in assay [6], no more than 0.015 µg/mL. For the same molecule, the MIC80 in assay [7] was 0.125 µg/mL (≈ 0.302 µM); in assay [8] it was no more than 0.015 µg/mL; in assay [9], 4 µg/mL (≈ 9.65 µM); in assay [10] it was no more than 0.015 µg/mL; in [11], 0.5 µg/mL (≈ 1.21 µM).

Consider `NN(Cc1ccccc1)C[C@](O)(Cn1cncn1)c1ccc(F)cc1F`, for which the MIC80 in assay [10] came to 1 µg/mL (≈ 2.78 µM).

In turn, `C[C@@H](n1nc(-c2ccccc2)c2cc([N+](=O)[O-])ccc21)[C@](O)(Cn1cncn1)c1ccc(F)cc1F` came in with an MIC80 in assay [10] of 2 µg/mL (≈ 4.08 µM).

Turning to `C[C@@H](n1ncc2cc(Cl)ccc21)[C@](O)(Cn1cncn1)c1ccc(F)cc1F`, the MIC80 was 4 µg/mL (≈ 9.91 µM) in assay [1]; 4 µg/mL (≈ 9.91 µM) in [2]; 4 µg/mL (≈ 9.91 µM) in assay [3]; 2 µg/mL (≈ 4.95 µM) in [4]; no more than 0.015 µg/mL in assay [5]; 0.125 µg/mL (≈ 0.31 µM) in [6]. Moreover, the MIC80 in [7] was 0.031 µg/mL (≈ 0.0768 µM); in assay [8] it was 0.5 µg/mL (≈ 1.24 µM); in assay [9], 8 µg/mL (≈ 19.8 µM); in [10] it was no more than 0.015 µg/mL; in assay [11] it was 2 µg/mL (≈ 4.95 µM).

With `C[C@@H](n1ncc2c([N+](=O)[O-])cccc21)[C@](O)(Cn1cncn1)c1ccc(F)cc1F`, the MIC80 in assay [1] was 2 µg/mL (≈ 4.83 µM); in assay [2] it was 1 µg/mL (≈ 2.41 µM); in [3], 2 µg/mL (≈ 4.83 µM); in [4], 1 µg/mL (≈ 2.41 µM); in assay [5] it was no more than 0.015 µg/mL; in assay [6] it was 0.031 µg/mL (≈ 0.0748 µM). In addition, the MIC80 is 0.031 µg/mL (≈ 0.0748 µM) in assay [7]; no more than 0.015 µg/mL in assay [8]; 2 µg/mL (≈ 4.83 µM) in assay [9]; no more than 0.015 µg/mL in assay [10]; 1 µg/mL (≈ 2.41 µM) in assay [11].

On to `C[C@@H](n1cc2c([N+](=O)[O-])cccc2n1)[C@](O)(Cn1cncn1)c1ccc(F)cc1F`, for which the MIC80 in assay [1] is 2 µg/mL (≈ 4.83 µM); in [2] it was 1 µg/mL (≈ 2.41 µM); in assay [3], greater than 8 µg/mL; in assay [4], 1 µg/mL (≈ 2.41 µM); in assay [5] it was 0.125 µg/mL (≈ 0.302 µM); in [6] it was 0.25 µg/mL (≈ 0.603 µM). Moreover, the MIC80 in [7] is 0.063 µg/mL (≈ 0.152 µM); in assay [8] it was 1 µg/mL (≈ 2.41 µM); in [9] it was 4 µg/mL (≈ 9.65 µM); in [10], no more than 0.015 µg/mL; in [11], 4 µg/mL (≈ 9.65 µM).

For `C[C@@H]1[C@H](O)[C@@H](C)/C=C/C=C/C=C/C=C/C=C/C=C/C=C/[C@H](O[C@@H]2O[C@H](C)[C@@H](O)[C@H](N)[C@@H]2O)C[C@@H]2O[C@](O)(C[C@@H](O)C[C@@H](O)[C@H](O)CC[C@@H](O)C[C@@H](O)CC(=O)O[C@H]1C)C[C@H](O)[C@H]2C(=O)O` [AMPHOTERICIN B], the MIC80 in assay [1] is 4 µg/mL (≈ 4.33 µM); in assay [2], 2 µg/mL (≈ 2.16 µM); in assay [4], 1 µg/mL (≈ 1.08 µM); in assay [9], 0.5 µg/mL (≈ 0.541 µM).
